Laboratory results from US20250090572A1 (priority 2020, published 2025).

Legend:
SARS-CoV-2 spike protein = SARS-CoV-2 spike protein (Severe acute respiratory syndrome coronavirus 2, UniProt P0DTC2); type: binding; settings: spike protein 50 nM, polysaccharide 1 μM
[1] = test system: Pseudovirus particles containing surface Wuhan-Hu-1 SGP; type: cell-based, SARS-CoV-2

With heparin the Binding inhibition (SARS-CoV-2 spike protein; competitive binding inhibition between polysaccharide-spike protein complex and heparin-SPR chip) was 82 ± 7.5%, the “competition with immobilized heparin for spike protein binding” value (SARS-CoV-2 spike protein) was “competed with heparin for spike protein binding” and the IC50 [1] was 4.6 µg/mL.

pentosan polysulfate [PPS] was tested, and the IC50 [1] was 1.6 µg/mL.
